Results reported in US20240277713A1 (Kadmon Corporation, LLC, priority 2022, published 2024).
Marks after values point to notes of the source that are not given here.

Assays:
[1] = tested on: Sprague-Dawley rats; assay: Embryo-fetal developmental toxicity study in Sprague-Dawley rats (Example 3)
Method: For this study, a total of 140 time-mated female rats (approximately 8 to 10 weeks of age) were obtained from Charles River Laboratories, Raleigh, North Carolina, and acclimated from the time of arrival until the time of dosing on GD 6. During the acclimation period, the animals were observed twice daily with respect to general health and any signs of disease. All animals were given a detailed clinical examination and body weights were recorded prior to selection. […] Food consumption was collected during the acclimation period.
Animals received in-life and postmorten evaluations. […] All fetuses were given an external and visceral or skeletal examination.
Detailed clinical observations were made daily from GD 6 through 20 (4 hours±1 hour postdose on dosing days).
Food consumption for main study animals was measured and recorded on the corresponding body weight days and calculated for the same intervals.
The placentae were examined grossly.
The foci, if detected, were considered early resorptions, and data from this female were included in mean calculations

[2] = Toxicokinetics in pregnant New Zealand White rabbits (Example 2); assay type: in vivo, rabbit; details: female, New Zealand White, rabbit, in vivo, po; for AUC(0-t): read-out: maternal AUC0-24; for Cmax: read-out: maternal Cmax
Method: The study was conducted in two phases: Phase A was a dose range finding tolerance study with non-pregnant rabbits, and Phase B was the pilot developmental toxicity study.
All fetuses were given the appropriate external examination.

[3] = tested on: rat bone marrow; assay: in vivo rat bone marrow micronucleus assay
[4] = Toxicokinetic evaluation in pregnant rats (Example 3); assay type: in vivo, rat; details: for Cmax / AUC(0-t): female, Sprague-Dawley, rat, plasma, po; for AUC(0-t): read-out: Mean AUC0-24 in plasma of pregnant rats
Text: Animals received in-life and postmorten evaluations.

[5] = 15 mg/kg/day, GD 6, belumosudil 15 mg base/kg oral
[6] = 15 mg/kg/day, GD 17, belumosudil 15 mg base/kg oral
[7] = 50 mg/kg/day, GD 6, belumosudil 50 mg base/kg oral
[8] = 50 mg/kg/day, GD 17, belumosudil 50 mg base/kg oral
[9] = 150 mg/kg/day, GD 6, belumosudil 150 mg base/kg oral
[10] = 150 mg/kg/day, GD 17, belumosudil 150 mg base/kg oral

CC(C)NC(=O)COc1cccc(-c2nc(Nc3ccc4[nH]ncc4c3)c3ccccc3n2)c1 [belumosudil, 2-{3-[4-(1H-indazol-5-ylamino)-2-quinazolinyl]phenoxy}-N-(propan-2-yl) acetamide]
Hair sparse, Lumbar region, times observed/animals ([1]; 50 mg base/kg/day, GD 6-20): 0/0 | Hair sparse, Thoracic region, times observed/animals ([1]; 50 mg base/kg/day, GD 6-20): 7/1 | Scabbed area, Face, times observed/animals ([1]; 50 mg base/kg/day, GD 6-20): 0/0 | Scabbed area, Forelimb/right, times observed/animals ([1]; 50 mg base/kg/day, GD 6-20): 0/0 | Scabbed area, Tail, times observed/animals ([1]; 50 mg base/kg/day, GD 6-20): 0/0 | Scabbed area, Thoracic region, times observed/animals ([1]; 50 mg base/kg/day, GD 6-20): 0/0 | Tail missing - portion, times observed/animals ([1]; 50 mg base/kg/day, GD 6-20): 0/0 | Fetal Body Weight Females, % Difference From Control ([1]; 150 mg base/kg/day): −7.7% | Fetal Body Weight Genders Combined, % Difference From Control ([1]; 150 mg base/kg/day): −7.3% | Fetal Body Weight Males, % Difference From Control ([1]; 150 mg base/kg/day): −8.0% | Maternal Body Weight Change GD 6-9 ([1]; 150 mg base/kg/day): −4.2^b g | Maternal Body Weight Change GD 6-18 ([1]; 150 mg base/kg/day): 55.4^b g | Maternal Body Weight Change GD 6-20 ([1]; 150 mg base/kg/day): 97.1^b g | Maternal Body Weight Change GD 18-20 ([1]; 150 mg base/kg/day): 41.8^b g | Maternal Body Weight GD 9 ([1]; 150 mg base/kg/day): 215.8^b g | Maternal Body Weight GD 12 ([1]; 150 mg base/kg/day): 232.1^b g | Maternal Body Weight GD 15 ([1]; 150 mg base/kg/day): 244.0^b g | Maternal Body Weight GD 18 ([1]; 150 mg base/kg/day): 275.3^b g | Maternal Body Weight GD 20 ([1]; 150 mg base/kg/day): 317.0^b g | Maternal Food Consumption GD 6-9 ([1]; 150 mg base/kg/day): 10.0^b | Maternal Food Consumption GD 6-18 ([1]; 150 mg base/kg/day): 15.4^b | Maternal Food Consumption GD 6-20 ([1]; 150 mg base/kg/day): 17.4^b | Maternal Food Consumption GD 18-20 ([1]; 150 mg base/kg/day): 29.4 | Mean Fetal Body Weight Females ([1]; 150 mg base/kg/day): 3.72 g | Mean Fetal Body Weight Genders Combined ([1]; 150 mg base/kg/day): 3.82 g | Mean Fetal Body Weight Males ([1]; 150 mg base/kg/day): 3.91 g | Adjusted Final Body Weight, Mean ([1]; 150 mg base/kg/day (N = 20)): 252.7^b g | Adjusted Weight Change From Day 6, Mean ([1]; 150 mg base/kg/day (N = 20)): 32.8^b | Final Body Weight, Mean ([1]; 150 mg base/kg/day (N = 20)): 317.0^b g | Gravid Uterine Weight, Mean ([1]; 150 mg base/kg/day (N = 20)): 64.3 g | Discharge, Brown, Vulva, times observed/animals ([1]; 150 mg base/kg/day, GD 6-20): 4/4 | Discharge, Red, Vulva, times observed/animals ([1]; 150 mg base/kg/day, GD 6-20): 1/1 | Ear/portion of ear missing, Ear/left, times observed/animals ([1]; 150 mg base/kg/day, GD 6-20): 15/1 | Hair sparse, Abdominal region, times observed/animals ([1]; 150 mg base/kg/day, GD 6-20): 0/0 | Hair sparse, Cervical region, times observed/animals ([1]; 150 mg base/kg/day, GD 6-20): 0/0 | Hair sparse, Forefoot/left, times observed/animals ([1]; 150 mg base/kg/day, GD 6-20): 27/3 | Hair sparse, Forefoot/right, times observed/animals ([1]; 150 mg base/kg/day, GD 6-20): 23/3 | Hair sparse, Forelimb/left, times observed/animals ([1]; 150 mg base/kg/day, GD 6-20): 14/2 | Hair sparse, Forelimb/right, times observed/animals ([1]; 150 mg base/kg/day, GD 6-20): 30/3 | Hair sparse, Hind limb/left, times observed/animals ([1]; 150 mg base/kg/day, GD 6-20): 6/1 | Hair sparse, Hind limb/right, times observed/animals ([1]; 150 mg base/kg/day, GD 6-20): 6/1 | Hair sparse, Lumbar region, times observed/animals ([1]; 150 mg base/kg/day, GD 6-20): 12/1 | Hair sparse, Thoracic region, times observed/animals ([1]; 150 mg base/kg/day, GD 6-20): 12/2 | Scabbed area, Face, times observed/animals ([1]; 150 mg base/kg/day, GD 6-20): 0/0 | Scabbed area, Forelimb/right, times observed/animals ([1]; 150 mg base/kg/day, GD 6-20): 0/0 | Scabbed area, Tail, times observed/animals ([1]; 150 mg base/kg/day, GD 6-20): 13/2 | Scabbed area, Thoracic region, times observed/animals ([1]; 150 mg base/kg/day, GD 6-20): 0/0 | Tail missing - portion, times observed/animals ([1]; 150 mg base/kg/day, GD 6-20): 11/1 | NOAEL for fetal developmental toxicity ([1]; pregnant rats): 50 mg base/kg/day | NOAEL for maternal toxicity ([1]; pregnant rats): 15 mg base/kg/day | mortality ([1]; rat, in vivo): No treatment related mortality | AUC(0-t) ([2]; 50 mg/kg/day): 2480 ng·h/mL | Cmax ([2]; 50 mg/kg/day): 621 ng/mL | AUC(0-t) ([2]; 250 mg/kg/day): 15600 ng·h/mL | Cmax ([2]; 250 mg/kg/day): 2100 ng/mL | genotoxicity, bone marrow micronucleus assay [3]: not genotoxic | Cmax [4, 5]: 1530 ng/mL | AUC(0-t) [4, 5]: 9750 ng·h/mL | Cmax [4, 6]: 1320 ng/mL | AUC(0-t) [4, 6]: 11900 ng·h/mL | Cmax [4, 7]: 3000 ng/mL | AUC(0-t) [4, 7]: 37700 ng·h/mL | Cmax [4, 8]: 4360 ng/mL | AUC(0-t) [4, 8]: 33300 ng·h/mL | Cmax [4, 9]: 5150 ng/mL | AUC(0-t) [4, 9]: 89400 ng·h/mL | Cmax [4, 10]: 7800 ng/mL | AUC(0-t) [4, 10]: 88300 ng·h/mL | accumulation after multiple dosing of belumosudil ([4]; pregnant rats): No apparent accumulation
